The conditions of series [1]: mouse.
Series [2] concerns the target T1, human EP2 receptors (Homo sapiens, UniProt P43116). As to conditions: for EP2 potency (in words): tested at 1 μM.
Series [3] deals with T1, human EP2 receptors. The following applies: earlier study; cited from earlier work.

T1 sequence (P43116 whole entry): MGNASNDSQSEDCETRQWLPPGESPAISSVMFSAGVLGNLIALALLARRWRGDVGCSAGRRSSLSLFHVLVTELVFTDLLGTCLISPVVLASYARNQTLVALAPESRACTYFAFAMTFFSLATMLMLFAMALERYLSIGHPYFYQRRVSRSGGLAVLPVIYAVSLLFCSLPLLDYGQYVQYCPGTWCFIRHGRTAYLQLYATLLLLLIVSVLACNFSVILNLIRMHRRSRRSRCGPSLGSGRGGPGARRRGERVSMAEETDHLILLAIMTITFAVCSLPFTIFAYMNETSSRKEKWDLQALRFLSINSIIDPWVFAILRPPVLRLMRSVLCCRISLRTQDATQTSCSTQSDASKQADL

As for `Cc1cc2ccccc2n1CCNC(=O)/C=C/c1ccc(OCCO)c(OCCO)c1` [6a, (E)-3-(3,4-Bis(2-hydroxyethoxy)phenyl)-N-(2-(2-methyl-1H-indol-1-yl)ethyl)acrylamide], in series [1], the “in vivo plasma half-life” value was “more than an hour”. For the same molecule, in series [1] (in vivo), the brain penetration property result was “poor”.

In the case of `COc1cc(/C=C/C(=O)NCCc2c(C)oc3ccccc23)cc(OC)c1OC` [5k], the “fold less EP2 potency in comparison to 5a” value on human EP2 receptors [2] is listed as 138 fold.

For the molecule `COc1cc(/C=C/C(=O)NCCc2n[nH]c3ccccc23)cc(OC)c1OC` [6t], the “EP2 potency (in words)” value on human EP2 receptors [2] was “completely lost EP2 potency”.

For the molecule `COc1cc(C(N)CC(=O)NCCn2c(C)cc3ccccc32)cc(OC)c1OC` (centres unmarked) [5w], the “fold less EP2 potency in comparison to 5a” value on human EP2 receptors [2] is 180 fold.

As to `COc1ccc(CCNC(=O)CCn2c(C)cc3ccccc32)cc1OC` [5u], the “EP2 potency (in words)” value at human EP2 receptors [2] is “killed EP2 potency”.

For the molecule `COc1cc(/C=C/C(=O)NCc2c(C)[nH]c3ccccc23)cc(OC)c1OC` [5s], the “EP2 potency (in words)” value at human EP2 receptors [2] was “complete loss of potency”.

For the molecule `COc1ccc(/C=C/C(=O)NCCn2c(C)cc3ccccc32)cc1` [6q], the “fold less EP2 potency in comparison to 5a” value at human EP2 receptors [2] came out at 7 fold.

For `COc1ccc(/C=C/C(=O)NCCn2c(C(F)(F)F)cc3ccccc32)cc1` [5e], the “fold less EP2 potency in comparison to 5d” value at human EP2 receptors [2] came out at 16 fold.

For `COc1cc(/C=C/C(=O)NCCN2CCCCC2C)cc(OC)c1OC` (centres unmarked) [6j], the “EP2 activity (in words)” value at human EP2 receptors [3] is given as “complete loss of activity”.

As to `Cc1cc(/C=C/C(=O)NCCn2c(C(F)(F)F)cc3ccccc32)cc(C)c1F` [5f], the “fold less EP2 potency in comparison to 5d” value at human EP2 receptors [2] is given as 16 fold.

In the case of `COC(=O)[C@H](Cc1c(C)[nH]c2ccccc12)NC(=O)/C=C/c1cc(OC)c(OC)c(OC)c1` [5y], at human EP2 receptors [2], the “EP2 potency (in words)” value was “inactive”.

On to `COc1cc(/C=C/C(=O)OCCn2c(C)cc3ccccc32)cc(OC)c1OC` [6h], for which the “fold less EP2 potency in comparison to 5a” value at human EP2 receptors [2] was “about 140 fold”.

In the case of `Cc1cc2ccccc2n1CCNC(=O)C1CC1c1ccc(F)cc1` (centres unmarked) [6i], the “fold less EP2 potency in comparison to 5a” value at human EP2 receptors [2] worked out at 100 fold.

These data come from PMC4032197 (Journal of Medicinal Chemistry, 2014).
